# Where a SMILES comes first, the peptide text is derived from it. Bridges are numbered along the chain shown (N, C = ends). [ ]: non-standard residue; d: D form. The star is where a group is joined. BODIPYFLEthylmaleimide = Cc1cc(C)n2c1C=C1C=CC(CCC(=O)NCCN3C(=O)CC(*)C3=O)=[N+]1[B-]2(F)F; R8 = C=CCCCCCC[C@@](C)(N)C(=O)O; S5 = C=CCCC[C@](C)(N)C(=O)O
# Experiments:
# NF-κB pathway = NF-κB pathway (Mus musculus, UniProt O88522); assay: NF-κB inhibition assay, LPS-stimulated 70Z3-C3 lacZ reporter cells; assay type: cell-based; conditions: 70Z3-C3 cells, 2 h peptide then LPS 4 h; N.I = No inhibition observed
# Description: The stable cell line of pre-B lymphocyte 70Z3-C3 cells expressing the lacZ reporter gene under the control of NF-κB was previously described. OCI-Ly3 (ABC-DLBCL, MALT1 dependent) and OCI-Ly7 (GCB-DLBCL). U2932 (ABC-DLBCL, MALT1 independent) were purchased from DSMZ (Deutsche Sammlung von Mikroorganismen and Zellkulturen) and HLY1 (ABC-DLBCL, MALT1 independent). Jurkat T-cells were obtained after transduction of lentiviruses containing a NF-κB reporter luciferase gene as previously described. All cell lines were grown in RPMI 1640 medium supplemented with 10% FBS, 10 μg/ml of streptomycin, 10 U/ml of penicillin and kept at 37° C., in a 5% CO2 humidified incubator. 0.05 mM of β-mercaptoethanol was added for 70Z3-C3. Primary and secondary antibodies were as following: polyclonal rabbit anti NF-κB p65, (sc-372, Santa Cruz Biotechnology, Inc) Alexa-488 coupled goat anti-rabbit IgG1 (Invitrogen) NF-κB inhibition assay was almost similar to those previously described in [1], except that luminescence data were monitored with a Centro XS^3, LB960 luminometer (Berthold technologies.), which is more sensitive. All experiments were performed in duplicates in 96-well plates. […] After 4 h incubation, cells were centrifuged 7 min at 400×g, at 4° C.
# 70Z3-C3 cells = assay: Cellular uptake of BODIPY-labeled peptides by FACS; assay type: cell-based; conditions: for reduction of the uptake of A-UBI-SAHND306-Q313 by endocytosis inhibitor: 30 min pre-incubation, nystatin 50 μg/ml, chlorpromazine 10 μg/ml, ethylisopropylamiloride 100 μM
# Experimental: 2.2×10^5 cells in 100 μl of 70Z3-C3 were incubated with either 10 μM or with various doses of 10 μM, 5 μM and 1 μM of labeled-peptides at 37° C., 5% CO2. Similarly to fluorescence microscopy experiments, cells alone or incubated with BODIPY®-labeled BSA (ref) or BODIPY®-UBI devoid of the antennapedia cell penetrating sequence were used as negative control, whereas cells with BA-UBI [1] at 10 μM were used as positive control. After 2 h incubation, cells were washed 4 times with PBS at room temperature, and finally diluted 1:3 in PBS before subjected to FACS analysis. Along with the BODIPY® fluorophore the fluorescence intensity was recorded at 525±25 nm using the Gallios Flow cytometer (Beckman Coulter) to analyse each cells sample. Each internalization peptide was assessed by gating a population of 15,000 events and the data were analysed using Kaluza software version 1.2.
# For determination of cellular uptake by flow cytometry, the BA-UBI-SAHND306-Q313 stapled peptide was first incubated with 2.2×10^5 70Z3-C3 cells in […] either at 4° C. or 37° C. for 2 h. Bodipy-labeled BSA, bodipy alone and bodipy-UBI were used as negative controls to verify the washing quality and efficient removal of any non-specific binding at the cell surface before FACS analysis. […] After 2 h of incubation, cells were washed four times with PBS at room temperature and diluted at 1:3 in PBS for FACS analysis. Samples were analyzed as previously described in the European patent (No: 15307137.8).
# [1] = CD spectroscopy, α-helical content; assay type: physicochemical; conditions: 50 μM peptide, phosphate buffer pH 7.0, UBI in TFE taken as 100%
# [2] = Temperature-induced denaturation followed by CD; assay type: physicochemical; conditions: 30 μM or 300 μM, ΔCp ≈ 0; for Tm: thermal denaturation by CD; for ΔH: van't Hoff enthalpy change at Tm
# Experimental: Temperature-induced denaturation experiments were performed by measuring the ellipticity at 222 nm from 1° C. to 95° C. in 1° C. steps, at a rate of 1° C./min, with a 2 nm bandwidth. Thermodynamic parameters including the melting temperature (Tm) and the van't Hoff enthalpy change at the melting temperature (ΔHm) were determined by fitting the denaturation curves with the Gibbs-Helmholtz equation as described elsewhere, [10]. The heat capacity change (ΔCp) was assumed to be 0 as judged by ΔHm which yielded similar values within 10% at two independent peptide concentrations (30 and 300 μM). The ellipticity was converted to differential extinction coefficient Δε (M^−1·cm^−1) per residue taking into account the peptide concentration determined by amino acid analysis.
# Thermal stability of the peptides was also investigated by performing thermal denaturation profiles followed by CD (FIGS. 1 C and D and Table III). […] Indeed, the helicity of UBI-Aib (49%) is only 1.16-fold increased at 1° C. compared to UBI (42%), while its melting temperature (Tm=−8° C.) is 2.25 times higher than that of UBI (Tm=−18° C.).
# CC2-LZ domain of NEMO = CC2-LZ domain of NEMO (Mus musculus, UniProt O88522); assay: Fluorescence anisotropy/polarization binding assay; conditions: for Binding affinity (FP) at 10 μM: fixed peptide concentration 10 μM
# CC2-LZ domain of NEMO, sequence (O88522 242-343 limits assumed): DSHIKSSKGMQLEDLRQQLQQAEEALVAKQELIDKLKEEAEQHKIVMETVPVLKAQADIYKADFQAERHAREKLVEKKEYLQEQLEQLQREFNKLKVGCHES
# Experimental: Measurements were performed on a Tecan infinite F500 equipped with polarizing filters and using excitation and emission wavelengths at 485 nm and 535 nm, respectively. Anisotropy data were calculated using the Magellan software version 6.5. Prior experiments, the mouse CC2-LZ was extensively dialyzed in binding buffer containing 20 mM HEPES pH 7.4, 100 mM NaCl, and 0.05% P20 detergent (v/v). All experiments were performed in a 384 well plate (vol 25 μl) at room temperature. The BODIPY®-labeled peptide concentrations were fixed at 0.1 or 10 μM whereas the CC2-LZ concentration varied from 0 to 100 μM. Reference calibrated at 22 mP, was based on the fluorescence of the peptide alone. Each experimental binding curve was determined from at least 10 independent concentration points. The G-factor was calculated as previously described in Agou et al. [7], with a value of 0.75, which was observed constant within 5% upon all titrations. For analysis, the blank value corresponding to the value of buffer alone, was subtracted from all titration data.
# All NEMO peptides were conjugated to an extra N-terminal cysteine with the fluorophore BODIPY® or FITC to determine their binding affinity for the CC2-LZ domain of NEMO (also called NOA or UBAN) by fluorescence polarization. For each peptide titration, various concentration of the target ranging from 0 to 100 μM and a fixed concentration of peptide at 0.1 or 10 μM were used at 25° C. […] For these reasons, all further titration experiments were performed with a fixed peptide concentration of 0.1 μM unless otherwise indicated.
# NF-κB pathway, sequence (O88522 whole entry): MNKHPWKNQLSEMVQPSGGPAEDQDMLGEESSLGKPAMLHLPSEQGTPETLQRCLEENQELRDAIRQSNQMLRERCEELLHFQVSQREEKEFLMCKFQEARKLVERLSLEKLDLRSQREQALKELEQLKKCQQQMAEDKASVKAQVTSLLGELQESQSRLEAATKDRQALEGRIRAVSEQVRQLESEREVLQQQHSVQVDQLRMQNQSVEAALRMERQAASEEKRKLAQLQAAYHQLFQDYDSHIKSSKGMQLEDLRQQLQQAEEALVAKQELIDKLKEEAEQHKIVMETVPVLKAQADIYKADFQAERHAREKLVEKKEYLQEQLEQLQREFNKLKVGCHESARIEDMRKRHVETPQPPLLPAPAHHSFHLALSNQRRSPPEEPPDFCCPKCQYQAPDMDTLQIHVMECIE
structure (smiles),measurement,setting,value
"CC[C@H](C)[C@H](NC(=O)[C@H](CC(=O)O)NC(=O)C(C)(C)NC(=O)[C@H](CCC(N)=O)NC(=O)C(C)(C)NC(=O)[C@H](CCCCN)NC(=O)[C@@H](N)CC(C)C)C(=O)N[C@@H](Cc1ccc(O)cc1)C(=O)N[C@@H](CCCCN)C(=O)NC(C)(C)C(=O)N[C@@H](CCCNC(=N)N)C(=O)N[C@@H](Cc1ccccc1)C(=O)N[C@@H](CCC(N)=O)C(=O)NC(C)(C)C(=O)N[C@@H](CCC(=O)O)C(=O)N[C@@H](CCCNC(=N)N)C(=O)N[C@@H](Cc1c[nH]cn1)C(=O)NC(C)(C)C(=O)N[C@@H](CCCNC(=N)N)C(=O)N[C@@H](CCC(=O)O)C(=O)N[C@@H](CCCCN)C(=O)O [UBI-AIB, LKAibQAibDIYKAibRFQAibERHAibREK] (HELM PEPTIDE1{L.K.[Aib].Q.[Aib].D.I.Y.K.[Aib].R.F.Q.[Aib].E.R.H.[Aib].R.E.K}$$$$V2.0)",IC 50 NF-κB inhibition,NF-κB pathway,N.I*
CC[C@H](C)[C@@H]1NC(=O)[C@](C)(NC(=O)[C@H](C)NC(=O)[C@H](CCC(N)=O)NC(=O)[C@H](C)NC(=O)[C@H](CCCCN)NC(=O)[C@H](CC(C)C)NC(=O)[C@H](CSC2CC(=O)N(CCNC(=O)CCC3=[N+]4C(=Cc5c(C)cc(C)n5[B-]4(F)F)C=C3)C2=O)NC(C)=O)CCCCCCC=CCCC[C@@](C)(C(=O)N[C@@H](C)C(=O)N[C@@H](CCC(N)=O)C(=O)N[C@@H](CCCNC(=N)N)C(=O)N[C@@H](Cc2c[nH]cn2)C(=O)N[C@@H](C)C(=O)N[C@@H](CCCNC(=N)N)C(=O)N[C@@H](CCC(N)=O)C(=O)N[C@@H](CCCCN)C(N)=O)NC(=O)[C@H](Cc2ccccc2)NC(=O)[C@H](CCCNC(=N)N)NC(=O)[C@H](C)NC(=O)[C@H](CCCCN)NC(=O)[C@H](Cc2ccc(O)cc2)NC1=O (some centres unmarked) [UBI-SAHN D306-Q313 Q/Q] (Ac-C(BODIPYFLEthylmaleimide)LKAQA[R8]IYKARF[S5]AQRHARQK-NH2; staple 7-14),"cell internalization by FACS, in words",70Z3-C3 cells,became cell permeable
"C[C@@H]1[C@H](O)[C@@H](C)/C=C/C=C/CC/C=C/C=C/C=C/C=C/C(O[C@H]2O[C@H](C)[C@@H](O)[C@H](N)[C@@H]2O)CC2O[C@](O)(CC(O)C(O)CCC(O)CC(O)CC(O)CC(=O)O[C@H]1C)CC(O)C2C(=O)O (some centres unmarked) [nystatin, reference compound]",reduction of the uptake of A-UBI-SAHND306-Q313 by endocytosis inhibitor,70Z3-C3 cells,50%
"CCN(c1nc(N)c(C(=O)N=C(N)N)nc1Cl)C(C)C [ethylisopropylamiloride, 5-(N-ethyl-N-isopropyl) amiloride, reference compound]",reduction of the uptake of A-UBI-SAHND306-Q313 by endocytosis inhibitor,70Z3-C3 cells,26%
"CN(C)CCCN1c2ccccc2Sc2ccc(Cl)cc21 [chlorpromazine, reference compound]",inhibition at 10 µg/mL,70Z3-C3 cells; read-out: reduction of the uptake of A-UBI-SAHND306-Q313 by endocytosis inhibitor,59%
CC[C@H](C)[C@@H]1NC(=O)[C@H](CC(=O)O)NC(=O)[C@H](C)NC(=O)[C@H](CCC(N)=O)NC(=O)[C@](C)(NC(=O)[C@H](CCCCN)NC(=O)[C@H](CC(C)C)NC(=O)[C@H](CSC2CC(=O)N(CCNC(=O)CCC3=[N+]4C(=Cc5c(C)cc(C)n5[B-]4(F)F)C=C3)C2=O)NC(C)=O)CCCCCC/C=C\CCC[C@@](C)(C(=O)N[C@@H](CCCNC(=N)N)C(=O)N[C@@H](Cc2ccccc2)C(=O)N[C@@H](CCC(N)=O)C(=O)N[C@@H](C)C(=O)N[C@@H](CCC(=O)O)C(=O)N[C@@H](CCCNC(=N)N)C(=O)N[C@@H](Cc2c[nH]cn2)C(=O)N[C@@H](C)C(=O)N[C@@H](CCCNC(=N)N)C(=O)N[C@@H](CCC(=O)O)C(=O)N[C@@H](CCCCN)C(N)=O)NC(=O)[C@H](CCCCN)NC(=O)[C@H](Cc2ccc(O)cc2)NC1=O (some centres unmarked) [UBI-SAHN A303-A310 (A)] (Ac-C(BODIPYFLEthylmaleimide)LK[R8]QADIYK[S5]RFQAERHAREK-NH2; staple (Z) 4-11; N-terminus and C-terminus assumed),α-helical content at 1° C.,[1],A: 63% -
same,α-helical content at 1° C.,[1]; listed as UBI-SAHNA303-A310 (A),63%
same,α-helical content at 1° C.,[1]; listed as UBI-SAHNA310-A310 (A),63%
same,ΔS,[2],A: −21 - cal. mol^−1.K^−1
same,Tm,[2],A: 5 - B: C°
same,ΔH,[2],A: −5950 - (cal. mol)^−1
same,Binding affinity (FP) at 10 μM,CC2-LZ domain of NEMO,weak binding
"CC[C@H](C)[C@@H]1NC(=O)[C@](C)(NC(=O)[C@H](C)NC(=O)[C@H](CCC(N)=O)NC(=O)[C@H](C)NC(=O)[C@H](CCCCN)NC(=O)[C@H](CC(C)C)NC(=O)[C@H](CSC2CC(=O)N(CCNC(=O)CCC3=[N+]4C(=Cc5c(C)cc(C)n5[B-]4(F)F)C=C3)C2=O)NC(C)=O)CCCCCCC=CCCC[C@@](C)(C(=O)N[C@@H](C)C(=O)N[C@@H](CCC(=O)OC)C(=O)N[C@@H](CCCNC(=N)N)C(=O)N[C@@H](Cc2c[nH]cn2)C(=O)N[C@@H](C)C(=O)N[C@@H](CCCNC(=N)N)C(=O)N[C@@H](CCC(=O)OC)C(=O)N[C@@H](CCCCN)C(N)=O)NC(=O)[C@H](Cc2ccccc2)NC(=O)[C@H](CCCNC(=N)N)NC(=O)[C@H](C)NC(=O)[C@H](CCCCN)NC(=O)[C@H](Cc2ccc(O)cc2)NC1=O (some centres unmarked) [UBI-SAHN D306-Q313 OMe, LKAQAX2IYKARFX5AX7RHARX9K] (Ac-C(BODIPYFLEthylmaleimide)LKAQA[R8]IYKARF[S5]AE(OMe)RHARE(OMe)K-NH2; staple 7-14)",Kd,"CC2-LZ domain of NEMO; fixed peptide concentration 0.1 μM, read-out: Binding affinity (FP) at 0.1 μM",24 ± 5 µM
same,"cell internalization by FACS, in words",70Z3-C3 cells,became cell permeable
CC[C@H](C)[C@@H]1NC(=O)[C@H](CC(=O)O)NC(=O)[C@H](C)NC(=O)[C@H](CCC(N)=O)NC(=O)[C@](C)(NC(=O)[C@H](CCCCN)NC(=O)[C@H](CC(C)C)NC(=O)[C@H](CSC2CC(=O)N(CCNC(=O)CCC3=[N+]4C(=Cc5c(C)cc(C)n5[B-]4(F)F)C=C3)C2=O)NC(C)=O)CCCCCC/C=C/CCC[C@@](C)(C(=O)N[C@@H](CCCNC(=N)N)C(=O)N[C@@H](Cc2ccccc2)C(=O)N[C@@H](CCC(N)=O)C(=O)N[C@@H](C)C(=O)N[C@@H](CCC(=O)O)C(=O)N[C@@H](CCCNC(=N)N)C(=O)N[C@@H](Cc2c[nH]cn2)C(=O)N[C@@H](C)C(=O)N[C@@H](CCCNC(=N)N)C(=O)N[C@@H](CCC(=O)O)C(=O)N[C@@H](CCCCN)C(N)=O)NC(=O)[C@H](CCCCN)NC(=O)[C@H](Cc2ccc(O)cc2)NC1=O (some centres unmarked) [UBI-SAHN A303-A310 (B)] (Ac-C(BODIPYFLEthylmaleimide)LK[R8]QADIYK[S5]RFQAERHAREK-NH2; staple (E) 4-11; N-terminus and C-terminus assumed),α-helical content at 1° C.,[1],B: 80%
same,α-helical content at 1° C.,[1]; listed as UBI-SAHNA303-A310 (B),80%
same,ΔS,[2],B: −21 cal. mol^−1.K^−1
same,Tm,[2],33 ± 0.3 C°
same,ΔH,[2],B: −6510 (cal. mol)^−1
same,Binding affinity (FP) at 10 μM,CC2-LZ domain of NEMO,weak binding
